Several values for one entry are separate records, joined by “and”; a condition that tells them apart may be missing. Equal values may be shown once.
How the values were obtained:
miR-429 = experiment: RNA CaptureSeq read counts at the control locus miR-429; assay type: cell-based, human; settings: PBMCs; control locus outside the miR-124 region
Experimental: Total RNA was extracted from infected and uninfected PBMC samples using TRIzol reagent (Invitrogen) following the manufacturer's protocol. The RNA concentrations and purity were determined using the RNA 6000 Bioanalyzer kit (Agilent). For cDNA synthesis, 1 μg of total RNA was treated with DNase I (Invitrogen) and then utilized as a template for reverse transcription using the Verso cDNA kit with a blend of random hexamers and anchored oligo-dT (Thermo Scientific), according to the manufacturer's instructions. After KAPA Hyper Prep (ROCHE) library preparation from 1 μg total RNA, we proceeded with SeqCap EZ capture (ROCHE) following the manufacturer's recommendations. […] Sequencing was performed on a NextSeq 500 (Illumina) with 18 samples on a HighOutput Cartridge (2×400 million reads of 75 bases each).
(§1) miR-124 is encoded from three independent genes, miR-124-1, miR-124-2, and miR-124-3, located on human chromosomes 8 and 20 (FIG. 4A). […] The total number of reads for untreated as well as ABX464 treated samples varied between 2 and 30 million in infected and uninfected PBMCs (Table V). The number of reads from the three loci encoding miR-124 in the treated samples were 4- to 12-fold higher than in the untreated samples (FIG. 4B, Table V), confirming that ABX464 led to a large increase in miR-124. […]

HIV RNA = experiment: RNA CaptureSeq of HIV RNA splicing in infected PBMCs; assay type: cell-based, HIV-1
Experimental: (§2) Total RNA was extracted from infected and uninfected PBMC samples using TRIzol reagent (Invitrogen) following the manufacturer's protocol. The RNA concentrations and purity were determined using the RNA 6000 Bioanalyzer kit (Agilent). For cDNA synthesis, 1 μg of total RNA was treated with DNase I (Invitrogen) and then utilized as a template for reverse transcription using the Verso cDNA kit with a blend of random hexamers and anchored oligo-dT (Thermo Scientific), according to the manufacturer's instructions. After KAPA Hyper Prep (ROCHE) library preparation from 1 μg total RNA, we proceeded with SeqCap EZ capture (ROCHE) following the manufacturer's recommendations. Hybrid selection was performed with a custom SeqCap EZ Choice Library (Roche NimbleGen) containing the following regions; chromosome 8 (9,760,617 to 9,761,780 and 65,285,285 to 65,296,944). chromosome 20 (61,797,549 to 61,812,855), chromosome 1 (1,102,000 to 1,106,000), chromosome 13 (92,000,074 to 92,006,833), chromosome 15 (22,512,831 to […]) and the genome of the HIV Ada8 strain. This library was designed through the NimbleDesign portal (v1.2.R1) using genome build hg19 NCBI Build 37.1/GRCh37. Sequencing was performed on a NextSeq 500 (Illumina) with 18 samples on a HighOutput Cartridge (2×400 million reads of 75 bases each).
To profile viral transcriptional events modulated by ABX464 and thereby assess the full depth of the HIV transcriptome, we employed a recently described targeted RNA capture and sequencing strategy (RNA CaptureSeq). This strategy involves the construction of tiling arrays across the HIV genome, against which cDNAs are hybridized, eluted and sequenced. RNA CaptureSeq is similar to previous in-solution capture methods and exome sequencing approaches, but when combined with deep-sequencing technology, provides saturating coverage and permits the robust assembly of rare and unannotated HIV transcripts.
PBMCs from 6 HIV-negative donors were infected with the YU-2 strain, followed by treatment with ABX464. […] After cDNA capture from infected cells that were untreated or treated with ABX464, libraries were prepared and sequenced using an Illumina sequencing facility. To highlight potential new splicing events induced by ABX464, we used a custom bioinformatics pipeline with the main step involving the assembly of putative transcripts from targeted RNA sequencing reads to construct contigs (Illumina paired-end 2×75 bp) (FIGS. 6 A and B). The putative transcripts (contigs) were then mapped to the HIV genome. The HIV profiling datasets used in our analysis yielded high sequence coverage (2 to 30 million reads for the 9 kb genome), allowing deep quantification of HIV splice variants.
To test whether enhanced splicing by ABX464 generates new viral RNA variants, the splicing events were filtered and analyzed. After mapping the contigs to the genome of the YU-2 strain, the latter was used as an anchor for additional clustering and assembly of new HIV transcripts. The partial gene structures generated by the spliced alignment were merged whenever they shared consecutive splicing sites spanning an intronic viral sequence. The superstructures so formed correspond to all possible HIV gene structures for which each complete exon is supported by at least one of the alignments. At the HIV transcript level, this led to the formation of superassemblies, where each superassembly is a merge of initial contigs matching a predicted superstructure. […] FIG. 1C and Table III present the distribution of the number of contigs that were merged to form one superassembly for each donor. […]

[1] = test system: miR-124 (miR-124-1, miR-124-2, miR-124-3 loci); experiment: RNA CaptureSeq read counts at the miR-124 loci in PBMCs; assay type: cell-based, human; settings: PBMCs treated with ABX464
Experimental: as §2
as §1, with “4A). To determine which of these genes is induced by ABX464, we employed targeted RNA CaptureSeq to assess the full depth of the transcriptome.” for “4A).”

[2] = PBMCs infected with YU2, treated with ABX464, one value per donor library

FC(F)(F)Oc1ccc(Nc2ccc3cccc(Cl)c3n2)cc1 [ABX464, 8-chloro-N-(4-(trifluoromethoxy)phenyl)quinolin-2-amine]
expression of miR-429 (miR-429): no effect
assembled contigs corresponding to spliced RNAs (HIV RNA; ABX464-treated PBMC samples infected with YU-2): 90%
contig counts spliced RNA transcripts Gag (HIV RNA; [2]): 18 and 42 and 25 and 13 and 19 and 26
contig counts spliced RNA transcripts Pol (HIV RNA; [2]): 67 and 61 and 17 and 14 and 12 and 35
contig counts spliced RNA transcripts Vif (HIV RNA; [2]): 32 and 34 and 15 and 16 and 12 and 25
contig counts spliced RNA transcripts env (HIV RNA; [2]): 59 and 42 (2×) and 37 and 13 and 35
contig counts spliced RNA transcripts rev (HIV RNA; [2]): 23 and 21 and 17 and 9 and 12 and 29
contig counts spliced RNA transcripts tat (HIV RNA; [2]): 16 and 18 (2×) and 19 and 15 and 24
contig counts spliced RNA transcripts vpr (HIV RNA; [2]): 14 (2×) and 9 and 12 (2×) and 11
contig counts spliced RNA transcripts vpu (HIV RNA; [2]): 7 and 5 and 13 and 11 (2×) and 17
contig counts Complete_mRNA (HIV RNA; PBMCs infected with YU2, treated with ABX464, one value per donor library (D1, D4-D8)): 11 and 13 and 6 (2×) and 32 and 15
read counts mir124.2 ([1]; one value per donor library): 704 and 4 and 4222 and 362 and 2326 and 5452
read counts mir124.3 ([1]; one value per donor library): 6439 and 701 and 21941 and 2542 and 14460 and 7772
read counts mir124.1 ([1]; one value per donor library (D1, D4-D8)): 4014 and 7114 and 4748 and 324 and 2486 and 1088

Reference: US20220145406A1, “BIOMARKERS, AND USES IN TREATMENT OF VIRAL INFECTIONS, INFLAMMATIONS, OR CANCER” (ABIVAX, priority 2018, published 2022)
